Measured values from publication PMC5658362 (Scientific Reports, 2017).
“Also recorded” adds a separate entry of the source. Structures can show the parent of a compound that is named as a salt.

How the values were obtained:
ΔtlpC H. pylori PMSS1 = assay: Swimming behaviour (direction change) chemotaxis assay, ΔtlpC mutant; type: cell-based, Helicobacter pylori
McpP = tested on: McpP; set-up: method as in PMID 26048936; details: P. aeruginosa sCACHE receptor McpP; cited from earlier work
TlpC LBD native = TlpC LBD native (Helicobacter pylori, UniProt O24911); assay: ITC titration of TlpC LBD with ligand; type: binding; details: for heat release or absorption on titration (binding): 5 mM ligand into 10 µM protein
Protocol: (§1) The expression vectors for single-point variants of TlpC LBD in which S104, Y151, K153, N213, I218 or Y285 were replaced by alanine, and Y249 by phenylalanine, were prepared from a TlpC-expressing plasmid described previously. This plasmid expresses codon-optimised H. pylori 26695 TlpC LBD consisting of amino acid residues 34–297 (Fig. 1a). Mutants were created using the QuikChange Mutagenesis Kit (Stratagene). TlpC LBD and its variants were expressed and purified following the previously published procedure.
(§2) Measurements were performed on a MicroCal VP-ITC instrument microcalorimeter (MicroCal) at 25 °C. […] The data was fitted to a single-site binding model using non-linear least-squares regression (Origin 7, OriginLab, USA), yielding the binding enthalpy ∆H, dissociation constant K D, and binding entropy […]. Each experiment was repeated three times.

TlpC LBD I218A = target: T1, TlpC LBD I218A (Helicobacter pylori, UniProt O24911, I218A); assay: ITC titration of TlpC LBD variant with lactate; type: binding
T1 sequence (O24911 34-297 I218A): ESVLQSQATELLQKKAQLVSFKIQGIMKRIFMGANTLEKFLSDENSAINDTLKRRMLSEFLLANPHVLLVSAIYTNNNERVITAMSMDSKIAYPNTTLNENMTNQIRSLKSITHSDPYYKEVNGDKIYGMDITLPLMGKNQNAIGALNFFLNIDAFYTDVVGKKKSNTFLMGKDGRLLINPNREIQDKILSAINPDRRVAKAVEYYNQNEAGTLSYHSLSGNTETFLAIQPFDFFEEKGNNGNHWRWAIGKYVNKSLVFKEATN
Protocol: as §1, §2

TlpC LBD K153A = target: T2, TlpC LBD K153A (Helicobacter pylori, UniProt O24911, K153A); assay: ITC titration of TlpC LBD variant with lactate; type: binding
T2 sequence (O24911 34-297 K153A): T1 sequence (O24911 34-297 I218A)
Protocol: as §1, §2

TlpC LBD N213A = target: T3, TlpC LBD N213A (Helicobacter pylori, UniProt O24911, N213A); assay: ITC titration of TlpC LBD variant with lactate; type: binding
T3 sequence (O24911 34-297 N213A): T1 sequence (O24911 34-297 I218A)
Protocol: as §1, §2

TlpC LBD S104A = target: T4, TlpC LBD S104A (Helicobacter pylori, UniProt O24911, S104A); assay: ITC titration of TlpC LBD variant with lactate; type: binding
T4 sequence (O24911 34-297 S104A): T1 sequence (O24911 34-297 I218A)
Protocol: as §1, §2

TlpC LBD Y151A = target: T5, TlpC LBD Y151A (Helicobacter pylori, UniProt O24911, Y151A); assay: ITC titration of TlpC LBD variant with lactate; type: binding
T5 sequence (O24911 34-297 Y151A): T1 sequence (O24911 34-297 I218A)
Protocol: as §1, §2

TlpC LBD = target: T6, TlpC LBD (Helicobacter pylori, UniProt O24911); assay: ITC titration of TlpC LBD variant with lactate; type: binding; details: text prints Y285A substitution
T6 sequence (O24911 34-297 Y285F): T1 sequence (O24911 34-297 I218A)

[1] = tested on: wild-type H. pylori PMSS1; assay: Swimming behaviour (direction change) chemotaxis assay, wild type; type: cell-based, Helicobacter pylori
H. pylori = details: cited from earlier work

SMILES: c1ccc(-c2ccccn2)nc1 [dipyridyl]
- chemotaxis response (attractant) (ΔtlpC H. pylori PMSS1; 50 μM dipyridyl): retained chemotaxis responses

SMILES: CC(=O)O [acetate]
- binding to McpP (McpP): binds

SMILES: CC(=O)C(=O)O [pyruvate]
- heat release or absorption on titration (binding) (TlpC LBD native): no significant heat release or absorption
- binding to McpP (McpP): binds

SMILES: O=C(O)CC(O)C(=O)O (centres unmarked) [malate]
- heat release or absorption on titration (binding) (TlpC LBD native): no significant heat release or absorption

SMILES: CCC(=O)O [propionate]
- binding to McpP (McpP): binds

SMILES: CC(O)C(=O)O (centres unmarked) [lactate]
- Enthalpy, ∆H (TlpC LBD native; native TlpC LBD): −21,323.3 ± 713.0 cal/mol
- Entropy, ∆S (TlpC LBD native; native TlpC LBD): −54.1 ± 2.0 cal/mol/degree
- Enthalpy, ∆H (TlpC LBD I218A): −18,145.0 ± 49.0 cal/mol
- Entropy, ∆S (TlpC LBD I218A): −49.4 ± 0.2 cal/mol/degree
- Enthalpy, ∆H (TlpC LBD K153A): −12,730 ± 345.0 cal/mol
- Entropy, ∆S (TlpC LBD K153A): −27.5 ± 1.0 cal/mol/degree
- effect of substitution on lactate binding (TlpC LBD N213A): abolished the binding
- Enthalpy, ∆H (TlpC LBD S104A): −13,105 ± 318.0 cal/mol
- Entropy, ∆S (TlpC LBD S104A): −28.2 ± 1.0 cal/mol/degree
- Enthalpy, ∆H (TlpC LBD Y151A): −12,040 ± 250.2 cal/mol
- Entropy, ∆S (TlpC LBD Y151A): −24.1 ± 1.0 cal/mol/degree
- effect of substitution on lactate binding (TlpC LBD): abolished the binding
- chemotactic (attractant) response, direction changes in 3 s ([1]; 0.1 mM lactate): significant response; also recorded: strongest
- chemotactic (attractant) response, direction changes in 3 s ([1]; 1.0 mM lactate): detectable
- chemotactic (attractant) response, direction changes in 3 s ([1]; 10 mM lactate): not detectable; also recorded: did not elicit a positive chemotactic response
- chemotactic (attractant) response, direction changes in 3 s ([1]; concentrations higher than 0.1 mM): lost the response
- optimal concentration at which lactate is sensed as attractant ([1]; order of magnitude, tested 0.1-10 mM): 0.1 mM
- chemotactic response to lactate (ΔtlpC H. pylori PMSS1; all tested concentrations (0.1, 1, 10 mM)): abolished the chemotactic response; also recorded: drastically reduced
- Kd (McpP): 107 µM
- concentration with inhibitory effect on H. pylori growth (H. pylori): ≥ 10 mM
- inhibitory effect on H. pylori viability among tested SCFA (H. pylori; short chain fatty acids secreted by LAB): strongest inhibitory effect

SMILES: Cl [HCl]
- chemotaxis response (repellent) (ΔtlpC H. pylori PMSS1; 10 mM HCl): retained chemotaxis responses

SMILES: O=C(O)CC(=O)C(=O)O [oxaloacetate]
- heat release or absorption on titration (binding) (TlpC LBD native): no significant heat release or absorption
